We go through 1 molecule from US9855270B2, “Methods and compositions for modulating estrogen receptor mutants” (priority 2014, dated 2018).

The structures appear in SMILES notation. Read-outs that look alike come from different tables or passages of the source.

Holding throughout (format): cell-based
In experiment [1] the test system is MCF-7 cells stably expressing UbC HA-ER-α wild-type. Kind of experiment: MCF-7 Stable Cell Line Viability (UbC HA-ER-α series). The following applies: UbC HA-ER-α Wild-type; for Efficacy (Emax): Day 5 relative to Day 0. From the text:
(§1) MCF-7 Mutant ER-α Stable Cell Line Generation: MCF-7 cells stably expressing wild-type or ER-α mutants were generated by subcloning ESR1 wild-type and mutant cDNAs containing an amino terminal hemagglutinin tag into pCDH-EF1-MCS-(PGK-Puro) (referred to as EF1 HA-ER-α) and pCDH-UbC-MCS-EF1-Hygro (referred to as UbC HA-ER-α) (System Biosciences). The resulting plasmids, in addition to an empty vector negative control, were subsequently cotransfected into HEK293T cells with the pPACKH1 packaging plasmid mix (System Biosciences) according to the manufacturer's protocol. Four days post transfection lentiviral particles were purified from the cell medium, tiered and stored at −80° C. MCF-7 cells were transduced with the purified viral particles and stable cell lines were selected by growth in RPMI containing 10% FBS plus 1 μG/mL puromycin or 200 μG/mL hygromycin for pCDH-EF1-MCS-(PGK-Puro) and pCDH-UbC-MCS-EF1-Hygro, respectively.
(§2) MCF-7 Stable Cell Line Viability: MCF-7 cells were enumerated with a hemacytometer adjusted to a concentration of 40,000 cells per mL in Phenol Free RPMI containing 10% CSS with NEAA and Sodium Pyruvate. 16 microliters of the cell suspension was added to each well of a 384 well tissue culture treated white clear bottom polystyrene plate (Corning) using a Matrix 16 channel electronic pipette. The cells were incubated overnight to allow the cells to adhere. The following day, 16 microliters of Phenol Free RPMI containing 10% CSS with NEAA and Sodium Pyruvate was added to the wells of one plate, followed by 16 μL of CellTiter-Glo (Promega, Madison Wis.) luminescent cell viability reagent using a Matrix 16 channel electronic pipette. […] The “average” of the relative luminescence units (RLUs) of the wells are considered to be the baseline value at time=zero. In addition, a 10 point, 1:5 serial dilution in DMSO (Sigma-Aldrich) was performed using Matrix 12 channel electronic pipette, including DMSO only as […]. 4 μL of each dilution was then added to 196 μL of RPMI containing 10% CSS with NEAA and Sodium Pyruvate. 16 μL of medium containing compound was added to the cells at a final concentration ranging from 10 μM to 5 pM. Compound dilution in media and subsequent addition to cells were carried out using Matrix 12 channel electronic pipettes. After 5 day compound exposure, 16 μL of CellTiter-Glo (Promega, Madison Wis.) luminescent cell viability reagent was added to the cells using a Matrix 16 channel electronic pipette. CellTiter-Glo added to 32 μL of medium without cells was used to obtain a background value. […] The relative luminescence units (RLUs) of each well were measured, and relative proliferation (fold) of each sample was determined as follows: (RLU sample−RLU background)/(RLU at T=0)=relative proliferation
(§3) The UbC promoter is reported by the manufacturer (System Biosciences) to express low to moderate RNA levels while the EF1 promoter expresses high levels (System Biosciences).

In experiment [2] the test system is MCF-7 cells (negative control). Described as above. The following applies: Agonist Mode.
From the text: as §1, §2, §3

Experiment [3] relates to MCF-7 cells stably expressing EF1 HA-ER-α wild-type. Kind of experiment: MCF-7 Stable Cell Line Viability (EF1 HA-ER-α series). The following applies: EF1 HA-ER-α Wild-type; for Efficacy (Emax): Day 5 relative to Day 0; for EC50: Homo sapiens, MCF7, read-out: Potency (EC50; nM).
From the text: as §1, §2, §3

Experiment [4] concerns MCF-7 cells transduced with an empty EF1 lentiviral vector (negative control). The experiment is described as above. The settings on record: for EC50: Homo sapiens, MCF7, Receptor None (empty EF1 lentiviral vector), read-out: Potency (EC50; nM).
From the text: as §1, §2, §3

Experiment [5] concerns MCF-7 cells stably expressing UbC HA-ER-α L536P. Kind of experiment: cells.
From the text: as §1, §2, §3

The test system of experiment [6] is MCF-7 cells stably expressing EF1 HA-ER-α L536P. Kind of experiment: cells. The following applies: EF1 HA-ER-α L536P, Day 5 relative to Day 0.
From the text: as §1, §2, §3

The test system of experiment [7] is MCF-7 cells stably expressing EF1 HA-ER-α L536R. Description: cells. The following applies: EF1 HA-ER-α L536R, Day 5 relative to Day 0.
From the text: as §1, §2, §3

Experiment [8] concerns MCF-7 cells stably expressing EF1 HA-ER-α Y537N. Kind of experiment: cells. The following applies: EF1 HA-ER-α Y537N; Agonist Mode; −E2; Day 5 relative to Day 0.
From the text: as §1, §2, §3

Where [9] appears, read: Homo sapiens, MCF7, read-out: Potency (EC50; nM), Agonist Mode, −E2.
Where [10] appears, read: Antagonist Mode, −E2 (Table 27).

The EC50 is the concentration that produces a half-maximal response. As to `C[C@]12CC[C@@H]3c4ccc(O)cc4CC[C@H]3[C@@H]1CC[C@@H]2O` [17β-Estradiol], the EC50 in experiment [1] (setting [9]) is 0.101 ± 0.16 nM; in experiment [2] (Homo sapiens, MCF7, Receptor None (MCF-7 negative control), −E2, read-out: Potency (EC50; nM)) it was 0.279 ± 0.518 nM; in experiment [3] (Agonist Mode, −E2), 0.518 ± 0.699 nM; in experiment [3] (setting [10]), 0.518 ± 0.699 nM; in experiment [4] (Agonist Mode, −E2) it was 0.02 ± 0.001 nM; in experiment [4] (setting [10]) it was 0.02 ± 0.001 nM. Besides, the EC50 in experiment [5] (setting [9]) amounted to 0.212 ± 0.401 nM. For the same molecule, the “Efficacy (Emax)” value in experiment [1] (Agonist Mode, −E2) was found to be 4.43 ± 0.88; in experiment [1] (Antagonist Mode, +E2), 5.12 ± 1.52; in experiment [2] (Receptor None (MCF-7 negative control), −E2, Day 5 relative to Day 0), 4.12 ± 0.88; in experiment [3] (Agonist Mode, −E2), 7.35 ± 1.28; in experiment [3] (Antagonist Mode, +E2), 6.67 ± 1.25; in experiment [4] (Receptor None (empty EF1 lentiviral vector), Antagonist Mode, +E2, Day 5 relative to Day 0), 4.24 ± 0.90. Moreover, the “Efficacy (Emax)” value in experiment [5] (Agonist Mode, −E2, Day 5 relative to Day 0) amounted to 5.06 ± 0.76; in experiment [5] (Antagonist Mode, +E2, Day 5 relative to Day 0), 5.66 ± 0.52; in experiment [6] (Agonist Mode, −E2), 8.49 ± 0.94; in experiment [6] (Antagonist Mode, +E2), 9.07 ± 0.12; in experiment [7] (Agonist Mode, −E2), 6.93 ± 1.50; in experiment [7] (Antagonist Mode, +E2), 6.83 ± 1.36. The “Efficacy (Emax)” value in experiment [8] was found to be 5.52 ± 0.43.
